The numbers were not newly measured in patent US6579851B2, “Effects of glucagon-like peptide-1 (7-36) on antro-pyloro-duodenal motility” (Amylin Pharmaceuticals, Inc., priority 2000, dated 2003), which cites them from elsewhere.

The subject of one data set is gastroduodenal motility. The following applies: cited from earlier work.
The conditions of data set [1]: in vivo; cited from earlier work.

As for Glucagon, the “Effect on contractions in the antrum” value in the data set on gastroduodenal motility (doses as high as 2 mg) is listed as “does not reduce contractions in the antrum”. In addition, in the data set on gastroduodenal motility (in vivo), the “Minimally effective dose for reduction in gastroduodenal motility” value is reported as 0.5 mg. Also, the “Dose at which side effects (nausea and vomiting) can appear” value in data set [1] is 1 mg.
